Assays:
[1] = system: Arabidopsis thaliana seedlings; test: Measurement of chlorophyll a and b in seedlings; type: in vivo; conditions: 4 days, long days
Method: Arabidopsis thaliana Columbia-0 (Col-0) was used as the wild type. For cotyledon analysis, plants were germinated and grown on ½ MS medium (Duchefa) containing 1.5% sucrose and 0.9% phytoagar (Duchefa), with or without Brz. Germinated plants were transferred to soil. Conditions in the growth chamber were 16 h light (100 μE m^−2 sec^−1 white light)/8 h dark at 22° C. […] Plants were homogenized in 80% (v/v) acetone. The chlorophyll content of the centrifuged supernatants was determined at 645 nm and 663 nm. Chlorophyll a and b content were determined according to Arnon (1949): Chlorophyll a (μg/mg fresh weight)=(12.7A663−[…])/mg fresh weight Chlorophyll b (μg/mg fresh weight)=(22.9A645−4.67A663)/mg fresh weight

Arabidopsis bpg2-1 = test: Hypocotyl phenotype when grown with Brz in the dark; type: in vivo, Arabidopsis thaliana; conditions: bpg2-1 grown with Brz in the dark (data not shown)
wild-type Arabidopsis = test: RT-PCR analysis of gene expression in dark-grown plants with Brz; type: in vivo, Arabidopsis thaliana; conditions: wild type grown in the dark 7 days with Brz 0.1, 1, 3 μM
From the text: FIG. 6. Inducible expression of BPG2 by light and Brz. (a) RT-PCR analysis of BPG2 gene expression in different organs: root (R), stem (S), rosette leaf blade (LB), rosette leaf petiole (LP), cauline leaves (CL), and flowers (F) of wild-type Arabidopsis. ACT2 served as an internal control. (b) RT-PCR analysis of expression of BPG2, CAB, and rbcS after exposure to light. Total RNAs were extracted from the wild type germinated in the dark for 7 days and exposed to light for 0 (lane 1, 0), 0.5 (lane 2, 0.5), 1 (lane 3, 1), 2 (lane 4, 2), or 4 h (lane 5, 4), and from 7-day-old wild type under long-day conditions (16 h light and 8 h dark; lane 6, L). (c) RT-PCR analysis of expression of BPG2, CAB, rbcS, and DWF4 on Brz. Total RNAs were extracted from wild type germinated in the dark for 7 days with Brz.
Total RNA was extracted from wild type and bpg2 mutants with the RNeasy Plant mini kit (Qiagen). First strand cDNA was synthesized with Super Script III first-strand cDNA synthesis for RT (Invitrogen) and used as template. RT-PCR was performed with Ex Taq (Takara Bio). […]

[2] = system: Arabidopsis thaliana seedlings; test: Immunoblot analysis of chloroplast proteins; type: in vivo; conditions: 1 μM Brz
Method: of wild type, bpg2-1, and bpg2-2 were ground in liquid nitrogen and extracted by boiling with two volumes/fresh weight of 1× Laemmli buffer [50 mM Tris-HCl (pH 6.8), 100 mM DTT, 2% (w/v) SDS, 0.1% (w/v) bromophenol blue, and 10% (w/v) glycerol] for immunoblot analysis of Rubisco LSU, SSU, and LHCP. Total proteins for immunoblot analysis of D1 protein were prepared as described (Nakajima et al., 1996). Proteins were separated by SDS-PAGE (12.5% acrylamide separating gel). After electrophoresis, the proteins were stained with Coomassie Brilliant Blue or electrophoretically transferred to Hybond ECL nitrocellulose membrane (Amersham). After blocking overnight in TBS (20 mM Tris, 0.137 M NaCl, pH7.4, 0.05% polyoxyethlene sorbital monolaurate) buffer containing 5% non-fat milk (Morinagamilk) at room temperature, the membrane was incubated in TBS buffer containing non-fat milk with polyclonal antibody for 1 h at room temperature. After washing in TBS buffer, the blots were incubated with horseradish peroxidase-conjugated secondary antibody (Promega for Rubisco L/S and LHCP, and Cosmo Bio for D1) for 1 h at room temperature, and the complexes were made visible with ECL Immoblin Western (Millipore). The polyclonal antibody against the tobacco Rubisco L/S complex was provided by F. Sato of Kyoto University. The polyclonal antibody against D1 and LHCP protein was obtained from Agrisera. LAS-4000 mini (Fuji Film) was used for detection.
To analyze BPG2 function with BR on chloroplast protein accumulation, we performed immunoblot analysis seedlings of wild type and bpg2 mutants in the light with and without Brz (FIG. 10). In wild type, Rubisco LSU protein from Brz-treated seedlings increased about 1.4-fold and D1 protein increased about 1.3-fold compared to that of no-Brz seedlings (FIG. 10a, b). […] The effect of BPG2 deficiency on LHCP protein was much smaller than on D1 and Rubisco LSU.

[3] = target: cytochrome P450 steroid C-22 hydroxylase encoded by the DWF4 gene (Arabidopsis thaliana, UniProt O64989); conditions: Asami et al., 2000, 2001; cited from earlier work
[4] = system: Arabidopsis bpg2 mutants and wild type; test: Northern blot analysis of photosynthesis gene expression; type: in vivo, Arabidopsis thaliana; conditions: bpg2 mutants versus wild type, dark grown 5-day seedlings, 1 μM Brz
Method: FIG. 7. Chloroplast gene expression in bpg2 mutants. Total RNA was extracted from light grown 4-day-old seedlings (a), 3-week-old rosette leaves (b) and dark grown 5-day-seedling (c) of wild type (WT), bpg2-1, and bpg2-2. Northern blot analysis was carried out using probes for psbA and rbcL, encoded in the chloroplast, and rbcS, CAB, and 18S rRNA, encoded in the nucleus. (c) Seedlings were germinated with 0 or 1 μM Brz in the dark.
Total RNA was extracted from light grown 4-day-old seedlings, 3-week-old rosette leaves and dark grown 5-day-old seedlings of wild type, bpg2-1 and bpg2-2 with the RNeasy Plant Mini kit (Qiagen). Total RNA (3 μg) was separated in 1.2% agarose/0.66 M formaldehyde gels and blotted on Hybond N^+ (Amersham). After transfer, the ECL Direct Nucleic Acid Labeling and Detection system (GE Healthcare) was used for hybridization, and LAS-4000 mini (Fuji Film) was used for analysis of chemical fluorescence.

[5] = wild type, germinated in the light for 3 days

Chain of cytochrome P450 steroid C-22 hydroxylase encoded by the DWF4 gene (O64989 whole entry): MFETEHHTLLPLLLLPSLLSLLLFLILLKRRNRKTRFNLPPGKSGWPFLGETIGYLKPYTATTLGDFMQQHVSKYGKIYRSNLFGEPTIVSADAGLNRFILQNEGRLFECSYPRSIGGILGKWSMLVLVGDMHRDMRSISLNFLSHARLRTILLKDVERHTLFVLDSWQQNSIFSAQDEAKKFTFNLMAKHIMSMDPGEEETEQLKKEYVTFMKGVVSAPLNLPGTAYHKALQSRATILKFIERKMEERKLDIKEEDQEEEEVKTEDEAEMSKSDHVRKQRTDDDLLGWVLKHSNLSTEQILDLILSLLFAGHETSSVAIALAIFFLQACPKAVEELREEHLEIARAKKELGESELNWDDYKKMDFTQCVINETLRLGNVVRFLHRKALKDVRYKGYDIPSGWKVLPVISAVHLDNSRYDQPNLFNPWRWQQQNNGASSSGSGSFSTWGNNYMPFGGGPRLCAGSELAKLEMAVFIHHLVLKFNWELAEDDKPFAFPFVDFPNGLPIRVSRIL

CC(O)(c1ccccc1)C(Cc1ccc(Cl)cc1)n1cncn1 (centres unmarked) [Brz, brassinazole]
chlorophyll levels following Brz treatment ([1]; bpg2:35S-BPG2 transformants, Brz 1 μM): increase in chlorophyll levels | endogenous chlorophyll a and b levels ([1]; wild-type seedlings, Brz 0.1 and 1 μM, light): increased | hypocotyl phenotype (Arabidopsis bpg2-1): same short hypocotyl as the wild type plants | BPG2 gene expression (wild-type Arabidopsis): actually increased | expression of CAB and rbcS (wild-type Arabidopsis): increased | D1 protein of Brz-treated seedlings ([2]; bpg2 mutants, light 3 days): the same as in no-Brz seedlings | Rubisco LSU protein of Brz-treated seedlings ([2]; bpg2 mutants, light 3 days): the same as in no-Brz seedlings | induction of Rubisco LSU protein and D1 protein by Brz ([2]; clpB3 and clpC1 mutants, light 3 days): no induction | D1 protein, Brz-treated compared to no-Brz seedlings [2, 5]: about 1.3 fold | Rubisco LSU protein, Brz-treated compared to no-Brz seedlings [2, 5]: about 1.4 fold | Rubisco SSU protein ([2]; wild type, light 3 days): increased | nuclear encoded-LHCP protein ([2]; wild type, light 3 days): increased | binding to cytochrome P450 steroid C-22 hydroxylase (DWF4) [3]: binds directly | expression of psbA, rbcL, CAB and rbcS [4]: to the same degree in bpg2 mutants as in wild type

— patent US8569580B2, “Transformed plants or algae with highly expressed chloroplast protein BPG2” (Riken, priority 2010, dated 2013)
